In brackets after ≈: the same amount, converted by molar mass.
What was measured:
[1] = test system: HepG2; test: Cytotoxicity against human HepG2 cells after 48 hrs by MTT assay; format: functional, cell-based; settings: HepG2, 48 h
[2] = test system: HeLa; test: cells; settings: Homo sapiens, 48 h
Description: Cytotoxicity against human HeLa cells after 48 hrs by MTT assay

[3] = test system: Artemia salina; test: Toxicity in Artemia salina larvae after 24 hrs by microscopic analysis; format: functional
[4] = test system: NCI-H460; test: Cytotoxicity against human NCI-H460 cells after 48 hrs by MTT assay; format: functional, cell-based; settings: NCI-H460, 48 h
[5] = test system: HeLa; test: Cell cycle arrest in human HeLa cells assessed as accumulation at G2/M phase at 10 ug/ml after 24 hrs by propidium iodide staining-based flow cytometry (reference value: 11.7%); format: functional
[6] = test system: HeLa; test: Cell cycle arrest in human HeLa cells assessed as accumulation at S phase at 40 ug/ml after 24 hrs by propidium iodide staining-based flow cytometry (reference value: 20.6%); format: functional
[7] = test system: HeLa; test: Cell cycle arrest in human HeLa cells assessed as accumulation at G0/G1 phase at 20 ug/ml after 24 hrs by propidium iodide staining-based flow cytometry (reference value: 67.7%); format: functional
[8] = test system: HeLa; test: Cell cycle arrest in human HeLa cells assessed as accumulation at G2/M phase at 20 ug/ml after 24 hrs by propidium iodide staining-based flow cytometry (reference value: 11.7%); format: functional
[9] = test system: HeLa; test: Cell cycle arrest in human HeLa cells assessed as accumulation at G2/M phase at 40 ug/ml after 24 hrs by propidium iodide staining-based flow cytometry (reference value: 11.7%); format: functional
[10] = test system: HeLa; test: Cell cycle arrest in human HeLa cells assessed as accumulation at G0/G1 phase at 40 ug/ml after 24 hrs by propidium iodide staining-based flow cytometry (reference value: 67.7%); format: functional
[11] = test system: HeLa; test: Cell cycle arrest in human HeLa cells assessed as accumulation at S phase at 20 ug/ml after 24 hrs by propidium iodide staining-based flow cytometry (reference value: 20.6%); format: functional
[12] = test system: HeLa; test: Cell cycle arrest in human HeLa cells assessed as accumulation at G0/G1 phase at 10 ug/ml after 24 hrs by propidium iodide staining-based flow cytometry (reference value: 67.7%); format: functional
[13] = test system: HeLa; test: Cell cycle arrest in human HeLa cells assessed as accumulation at S phase at 10 ug/ml after 24 hrs by propidium iodide staining-based flow cytometry (reference value: 20.6%); format: functional

SMILES	IC50 [1] [µg/mL]	IC50 [2] [µg/mL]	LC50 [3] [µg/mL]	IC50 [4] [µg/mL]	other results
COc1ccccc1C1CC([C@H]2CC[C@H]3[C@@H]4CCC5=C(Cl)C(=O)C=C[C@]5(C)[C@H]4CC[C@]23C)=NN1C(C)=O (mixture of isomers)	16.2	15.3	9.92	15.7	–
CC(=O)N1N=C([C@H]2CC[C@H]3[C@@H]4CCC5=C(Cl)C(=O)C=C[C@]5(C)[C@H]4CC[C@]23C)CC1c1ccc([N+](=O)[O-])cc1 (some centres undefined)	> 50	> 50	8.43 (≈ 15.7 µM)	> 50	–
COc1ccc(C2CC([C@H]3CC[C@H]4[C@@H]5CCC6=C(Cl)C(=O)C=C[C@]6(C)[C@H]5CC[C@]34C)=NN2C(C)=O)cc1 (mixture of isomers)	16.9	19.7	27.3	17.9	–
CC(=O)N1N=C([C@H]2CC[C@H]3[C@@H]4CCC5=C(Cl)C(=O)C=C[C@]5(C)[C@H]4CC[C@]23C)CC1c1ccccc1Cl (mixture of isomers)	24.3	12.5	5.65	10.3	Activity [5]: 9.9%; Activity [6]: 41.1%; Activity [7]: 51.4%; Activity [8]: 9.7%; Activity [9]: 11.3%; Activity [10]: 47.6%; Activity [11]: 38.9%; Activity [12]: 55.8%; Activity [13]: 34.3%
CC(=O)[C@H]1CC[C@H]2[C@@H]3CCC4=C(Cl)C(=O)C=C[C@]4(C)[C@H]3CC[C@]12C	> 50	> 50	> 100	26.7 (≈ 77 µM)	–
O=c1[nH]cc(F)c(=O)[nH]1 [FLUOROURACIL]	–	0.887 (≈ 6.82 µM)	–	2.48 (≈ 19.1 µM)	–
CC(=O)N1N=C([C@H]2CC[C@H]3[C@@H]4CCC5=CC(=O)C=C[C@]5(C)[C@H]4CC[C@]23C)CC1c1ccccc1[N+](=O)[O-] (some centres undefined)	–	> 50	30.2 (≈ 60.2 µM)	–	–
COc1ccccc1C1CC([C@H]2CC[C@H]3[C@@H]4CCC5=CC(=O)C=C[C@]5(C)[C@H]4CC[C@]23C)=NN1C(C)=O (some centres undefined)	–	> 50	44.9 (≈ 92.2 µM)	–	–
CC(=O)N1N=C([C@H]2CC[C@H]3[C@@H]4CCC5=CC(=O)C=C[C@]5(C)[C@H]4CC[C@]23C)CC1c1ccc([N+](=O)[O-])cc1 (some centres undefined)	–	> 50	38.2 (≈ 76.1 µM)	–	–
CC(=O)N1N=C([C@H]2CC[C@H]3[C@@H]4CCC5=CC(=O)C=C[C@]5(C)[C@H]4CC[C@]23C)CC1c1ccc(Cl)cc1 (some centres undefined)	–	> 50	36.6 (≈ 74.6 µM)	–	–
CC(=O)N1N=C([C@H]2CC[C@H]3[C@@H]4CCC5=CC(=O)C=C[C@]5(C)[C@H]4CC[C@]23C)CC1c1ccccc1Cl (some centres undefined)	–	> 50	21.7 (≈ 44.2 µM)	–	–
CC(=O)N1N=C([C@H]2CC[C@H]3[C@@H]4CCC5=C(Cl)C(=O)C=C[C@]5(C)[C@H]4CC[C@]23C)CC1c1ccc(Cl)cc1 (some centres undefined)	25.3 (≈ 48.1 µM)	26.6 (≈ 50.6 µM)	10.4 (≈ 19.8 µM)	13.9 (≈ 26.4 µM)	–
CC(=O)[C@H]1CC[C@H]2[C@@H]3CCC4=CC(=O)CC[C@]4(C)[C@H]3CC[C@]12C [PROGESTERONE]	–	> 50	> 100	–	–
CC(=O)N1N=C([C@H]2CC[C@H]3[C@@H]4CCC5=C(Cl)C(=O)C=C[C@]5(C)[C@H]4CC[C@]23C)CC1c1ccccc1[N+](=O)[O-] (some centres undefined)	> 50	> 50	7.7 (≈ 14.4 µM)	14.8 (≈ 27.6 µM)	–
COc1ccc(C2CC([C@H]3CC[C@H]4[C@@H]5CCC6=CC(=O)C=C[C@]6(C)[C@H]5CC[C@]34C)=NN2C(C)=O)cc1 (some centres undefined)	–	> 50	> 50	–	–
CC(=O)N1N=C([C@H]2CC[C@H]3[C@@H]4CCC5=C(Cl)C(=O)C=C[C@]5(C)[C@H]4CC[C@]23C)CC1c1ccccc1 (some centres undefined)	17.3 (≈ 35.2 µM)	13.7 (≈ 27.9 µM)	4.99 (≈ 10.2 µM)	13.1 (≈ 26.7 µM)	–
CC(=O)N1N=C([C@H]2CC[C@H]3[C@@H]4CCC5=CC(=O)C=C[C@]5(C)[C@H]4CC[C@]23C)CC1c1ccccc1 (some centres undefined)	–	> 50	18.9 (≈ 41.5 µM)	–	–

— ChEMBL document CHEMBL2434963, “Synthesis and cytotoxic activity of some novel steroidal C-17 pyrazolinyl derivatives” (Eur J Med Chem, 2013)
